Test results: article PMC3670040, “Structure of Lipid Kinase p110β/p85β Elucidates an Unusual SH2-Domain-Mediated Inhibitory Mechanism” (Molecular Cell, 2011)
Square brackets hold non-standard residues; d marks the D form. Ends that are not written are not given here. pY = N[C@@H](Cc1ccc(OP(=O)(O)O)cc1)C(=O)O

Tests used:
p110β/p85β complexes = assay: Transcreener ADP formation, soluble monomeric diC8-PIP2 substrate; format: biochemical, mouse; conditions: p110β/p85-niSH2 and p110β/p85-icSH2 complexes
Procedure: (§1) Figure 1 Inhibition of p110β by p85-Type Regulatory Subunits and Activation of the Complexes by RTK Phosphopeptide (A) Domain organization of p110β and the regulatory subunits p85α, p85β, and p55γ. The color scheme for the domains is used for all figures, unless otherwise stated. […] The inhibition is released upon addition of the 10 μM PDGFR pY2. […] The y axis is expressed as a change in fluorescence polarization (ΔmP), which is obtained by subtracting the observed polarization for the construct at a given enzyme concentration from the maximum fluorescence polarization for that construct. […]
The lipid kinase activity was determined using the Transcreener ADP2 FP Assay (BellBrook Labs, Madison, WI) according to manufacturer‟s specifications. This non-radioactive assay measures activity by quantitating the amount of ADP formed. The ADP formed by PI3K competes with fluorescent ADP tracer for binding to an anti-ADP antibody, thereby decreasing fluorescence polarization. Because of the competitive nature of this assay, the change in fluorescence polarization signal is not a linear function of enzyme activity, and a convenient measure of enzyme activity is the EC50, or the concentration of enzyme necessary to give half-maximal inhibition of labeled ADP binding to the antibody, for a given concentration of substrate and a fixed time of reaction at initial rate. […]

p110β/p85β-nic = assay: ATPase activity (ADP formation) in the absence of lipid substrate, Transcreener; format: biochemical, mouse; conditions: p110β/p85-niSH2 and p110β/p85-icSH2 complexes; absence of lipid substrate
Procedure: as §1, with “construct. The plateau in these assays arises due to the competitive nature of the ADP detection system, based on displacement of ADP-Alexa 633 tracer from the ADP^2-antibody by ADP generated during the PI3K assay (see Supplemental Experimental Procedures). All measurements were done in triplicates, and the error bars indicate the standard error of the mean (SEM).” for “construct.”
The lipid kinase activity was determined using the Transcreener ADP2 FP Assay (BellBrook Labs, Madison, WI) according to manufacturer‟s specifications. This non-radioactive assay measures activity by quantitating the amount of ADP formed. The ADP formed by PI3K competes with fluorescent ADP tracer for binding to an anti-ADP antibody, thereby decreasing fluorescence polarization. […]

ESDGG[pY]MDMSKDESID[pY]VPMLDMKGDIKYADIE [pY2, bis-phosphopeptide (PDGFR 735–767, with pY740 and pY751)]
activity with soluble lipid substrate in the presence of pY2 (p110β/p85β complexes): enhanced
ATPase activity in the presence of pY2 (p110β/p85β-nic): enhanced
